# Data: patent US11072588B2, “Barbituric acid derivatives comprising cationic and lipophilic groups” (UNIVERSITETET I TROMSØ—NORGES ARKTISKE UNIVERSITET, priority 2017, dated 2021)
# Read-outs that look alike come from different tables or passages of the source.
# Tests used:
# S. aureus strain WIS = test: MIC, multi-resistant clinical isolate; type: cell-based, Staphylococcus aureus; conditions: for selectivity index (EC50/MIC): RBC EC50 / MIC, S. aureus strain WIS; for MIC: Staphylococcus aureus, read-out: Antimicrobial activity (MIC)
# Experimental: (§1) Working solutions of the test derivatives were prepared with up to 100% DMSO and stored at −20° C. If necessary, the solutions were heated to 40-80° C. before testing to facilitate complete dissolution. Double-distilled water was used in all dilutions prepared. […] A microdilution susceptibility test was used for MIC determination according to Clinical and Laboratory Standards Institute, “Methods for Dilution Antimicrobial Sisceptibility Tests for Bacteria That Graw Aerobically”, Approved Standard M07-A9, edition 2012, with modifications as described by Igumnova et al (Bioorg Med Chem, 2016, 24 (22), 5884-5894).
# (§2) Briefly, the bacterial inoculum was adjusted to approximately 2.5-3×10^4 cells/mL in Mueller-Hinton broth (MHB, Difco Laboratories, USA), and incubated in a ratio of 1:1 with test derivatives in polystyrene 96-well flat-bottom microplates (NUNC, Roskilde, Denmark). Positive growth control (without test derivatives) and negative control (without bacteria) were included. The reference antibiotic was oxytetracycline hydrochloride (Sigma Aldrich, Saint Louis, Mo., USA). The microplates were incubated in an EnVision microplate reader (Perkin-Elmer, Turku, Finland) placed in an incubator set to 35° C. for 48 h. The MIC value was defined as the lowest concentration of derivative resulting in no bacterial growth as determined by OD600 measurement. All derivatives were tested in three parallels.
# (§3) The MIC was determined as explained above with some exceptions; working solutions of test derivatives were prepared from concentrated DMSO stocks stored at room temperature, the density of the bacterial inoculum was increased 40× to 1-1.2×10^6 cells/mL, enterococci were incubated in Brain Heart Infusion broth (BHIB, Difco Laboratories, USA), the microplates were incubated for 24 h, and the derivatives were tested in four parallels.
# S. aureus IHT 99040 = test: MIC, multi-resistant clinical isolate; type: cell-based, Staphylococcus aureus; conditions: for selectivity index (EC50/MIC): RBC EC50 / MIC; for MIC: Staphylococcus aureus, IHT99040, read-out: Antimicrobial activity (MIC)
# Experimental: as §1, §2, §3
# S. aureus N315 = test: MIC, multi-resistant clinical isolate; type: cell-based, Staphylococcus aureus; conditions: for selectivity index (EC50/MIC): RBC EC50 / MIC, S. aureus N315; for MIC: Staphylococcus aureus, N315, read-out: Antimicrobial activity (MIC)
# Experimental: as §1, §2, §3
# S. aureus strain 85/2082 = test: MIC, multi-resistant clinical isolate; type: cell-based, Staphylococcus aureus; conditions: for selectivity index (EC50/MIC): RBC EC50 / MIC, S. aureus strain 85/2082; for MIC: Staphylococcus aureus, 85/2082, read-out: Antimicrobial activity (MIC)
# Experimental: as §1, §2, §3
# S. aureus NCTC 10442 = test: MIC, multi-resistant clinical isolate; type: cell-based, Staphylococcus aureus; conditions: for selectivity index (EC50/MIC): RBC EC50 / MIC, S. aureus NCTC 10442; for MIC: Staphylococcus aureus, NCTC10442, read-out: Antimicrobial activity (MIC)
# Experimental: as §1, §2, §3
# A. baumanii K44-35 = test: MIC, multi-resistant clinical isolate; type: cell-based, Acinetobacter baumannii; conditions: for MIC: Acinetobacter baumannii, K4435, read-out: Antimicrobial activity (MIC); for selectivity index (EC50/MIC): RBC EC50 / MIC
# Experimental: as §1, §2, §3
# A. baumanii K47-42 = test: MIC, multi-resistant clinical isolate; type: cell-based, Acinetobacter baumannii; conditions: for MIC: Acinetobacter baumannii, K4742, read-out: Antimicrobial activity (MIC); for selectivity index (EC50/MIC): RBC EC50 / MIC
# Experimental: as §1, §2, §3
# A. baumanii K12-21 = test: MIC, multi-resistant clinical isolate; type: cell-based, Acinetobacter baumannii; conditions: for MIC: Acinetobacter baumannii, K1221, read-out: Antimicrobial activity (MIC); for selectivity index (EC50/MIC): RBC EC50 / MIC
# Experimental: as §1, §2, §3
# A. baumanii K63-58 = test: MIC, multi-resistant clinical isolate; type: cell-based, Acinetobacter baumannii; conditions: A. baumanii K63-58, resistant to colistin; for MIC: Acinetobacter baumannii, K6358, 24 h, read-out: Antimicrobial activity (MIC); for selectivity index (EC50/MIC): RBC EC50 / MIC
# Experimental: as §1, §2, §3
# A. baumanii K55-13 = test: MIC, multi-resistant clinical isolate; type: cell-based, Acinetobacter baumannii; conditions: for MIC: Acinetobacter baumannii, K5513, read-out: Antimicrobial activity (MIC); for selectivity index (EC50/MIC): RBC EC50 / MIC
# Experimental: as §1, §2, §3
# [1] = tested on: panel of 30 multi-resistant clinical isolates of Gram-positive and Gram-negative bacteria; test: MIC screening, ranges over the panel of clinical isolates; type: cell-based
# Experimental: as §1, §2, §3
# E. coli 50739822 = test: MIC, multi-resistant clinical isolate; type: cell-based, Escherichia coli; conditions: for MIC: Escherichia coli, read-out: Antimicrobial activity (MIC); for selectivity index (EC50/MIC): RBC EC50 / MIC
# Experimental: as §1, §2, §3
# E. coli 50676002 = test: MIC, multi-resistant clinical isolate; type: cell-based, Escherichia coli; conditions: E. coli 50676002; for MIC: Escherichia coli, read-out: Antimicrobial activity (MIC); for selectivity index (EC50/MIC): RBC EC50 / MIC
# Experimental: as §1, §2, §3
# P. aeruginosa K34-73 = test: MIC, multi-resistant clinical isolate; type: cell-based, Pseudomonas aeruginosa; conditions: P. aeruginosa K34-73; for MIC: Pseudomonas aeruginosa, K3473, read-out: Antimicrobial activity (MIC); for selectivity index (EC50/MIC): RBC EC50 / MIC
# Experimental: as §1, §2, §3
# P. aeruginosa 50692520 = test: MIC, multi-resistant clinical isolate; type: cell-based, Pseudomonas aeruginosa; conditions: for MIC: Pseudomonas aeruginosa, read-out: Antimicrobial activity (MIC); for selectivity index (EC50/MIC): RBC EC50 / MIC
# Experimental: as §1, §2, §3
# P. aeruginosa K34-7 = test: MIC, multi-resistant clinical isolate; type: cell-based, Pseudomonas aeruginosa; conditions: for MIC: Pseudomonas aeruginosa, K347, read-out: Antimicrobial activity (MIC); for selectivity index (EC50/MIC): RBC EC50 / MIC, P. aeruginosa K34-7
# Experimental: as §1, §2, §3
# P. aeruginosa 50692172 = test: MIC, multi-resistant clinical isolate; type: cell-based, Pseudomonas aeruginosa; conditions: for MIC: Pseudomonas aeruginosa, read-out: Antimicrobial activity (MIC); for selectivity index (EC50/MIC): RBC EC50 / MIC
# Experimental: as §1, §2, §3
# P. aeruginosa K44-24 = test: MIC, multi-resistant clinical isolate; type: cell-based, Pseudomonas aeruginosa; conditions: for MIC: Pseudomonas aeruginosa, K4424, read-out: Antimicrobial activity (MIC); for selectivity index (EC50/MIC): RBC EC50 / MIC
# Experimental: as §1, §2, §3
# [2] = tested on: human metastatic melanoma (A2058, ATCC CRL-11147) cells; test: Anti-cancer activity against A2058 cells; type: cell-based; conditions: A2058, read-out: Anti-cancer IC50
# Summary of the method: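 A2058 melanoma cells seeded at 2,000/well overnight, then exposed to a concentration range in serum-free MEM (gentamycin, NEAA, pyruvate, glutamine) for 24 h (cytotoxicity stated as after 72 h exposure). MTS-type tetrazolium reagent added for 1 h; absorbance at 485 nm; % survival versus medium and Triton X-100 controls.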
SMILES,selectivity index (EC50/MIC) (S. aureus strain WIS),MIC (S. aureus strain WIS),selectivity index (EC50/MIC) (S. aureus IHT 99040),MIC (S. aureus IHT 99040),selectivity index (EC50/MIC) (S. aureus N315),MIC (S. aureus N315),selectivity index (EC50/MIC) (S. aureus strain 85/2082),MIC (S. aureus strain 85/2082),selectivity index (EC50/MIC) (S. aureus NCTC 10442),MIC (S. aureus NCTC 10442),MIC (A. baumanii K44-35),selectivity index (EC50/MIC) (A. baumanii K44-35),MIC (A. baumanii K47-42),selectivity index (EC50/MIC) (A. baumanii K47-42),MIC (A. baumanii K12-21),selectivity index (EC50/MIC) (A. baumanii K12-21),MIC (A. baumanii K63-58),selectivity index (EC50/MIC) (A. baumanii K63-58),MIC (A. baumanii K55-13),selectivity index (EC50/MIC) (A. baumanii K55-13),other results
"N=C(N)NCCCCN1C(=O)N(CCCCNC(=N)N)C(=O)C(Cc2ccc(F)c3ccccc23)(Cc2ccc(F)c3ccccc23)C1=O [8(v), 1,1′-(4,4′-(5,5-bis((4-fluoronaphthalen-1-yl)methyl)-2,4,6-trioxodihydropyrimidine-1,3(2H,4H)-diyl)bis(butane-4,1-diyl))diguanidine]",(44),2 µg/mL,(44),2 µg/mL,(44),2 µg/mL,(44),2 µg/mL,(44),2 µg/mL,8 µg/mL,(11),8 µg/mL,(11),8 µg/mL,(11),8 µg/mL,(11),8 µg/mL,(11),MIC ([1]; read-out: MIC values against all the 30 multi-resistant clinical isolates): 2 to 16 µg/mL; MIC (E. coli 50739822): 8 µg/mL; selectivity index (EC50/MIC) (E. coli 50739822): (11); MIC (E. coli 50676002): 4 µg/mL; selectivity index (EC50/MIC) (E. coli 50676002): (22); MIC (P. aeruginosa K34-73): 8 µg/mL; selectivity index (EC50/MIC) (P. aeruginosa K34-73): (11); MIC (P. aeruginosa 50692520): 16 µg/mL; selectivity index (EC50/MIC) (P. aeruginosa 50692520): (6); MIC (P. aeruginosa K34-7): 16 µg/mL; selectivity index (EC50/MIC) (P. aeruginosa K34-7): (6); MIC (P. aeruginosa 50692172): 16 µg/mL; selectivity index (EC50/MIC) (P. aeruginosa 50692172): (6); MIC (P. aeruginosa K44-24): 16 µg/mL; selectivity index (EC50/MIC) (P. aeruginosa K44-24): (6); IC50 [2]: 8 µg/mL
"CC(C)(C)c1ccc(CC2(Cc3ccc(C(C)(C)C)cc3)C(=O)N(CCCCNC(=N)N)C(=O)N(CCCCNC(=N)N)C2=O)cc1 [Compound 8(i), 1,1′-(4,4′-(5,5-bis(4-tert-butylbenzyl)-2,4,6-trioxodihydropyrimidine-1,3(2H,4H)-diyl)bis(butane-4,1-diyl))diguanidine]",(39),2 µg/mL,(39),2 µg/mL,(39),2 µg/mL,(39),2 µg/mL,(39),2 µg/mL,8 µg/mL,(10),8 µg/mL,(10),4 µg/mL,(19),4 µg/mL,(19),8 µg/mL,(10),"MIC ([1]; Pseudomonas aeruginosa, read-out: MIC against P. aeruginosa): 8 to 16 µg/mL; fold improvement in antimicrobial activity compared to the analogous amine barbiturate 7(i) ([1]; multi-resistant clinical isolates): up to 4 fold; MIC ([1]; read-out: MIC values against S. aurues, E. faecium and E. coli): 2 to 4 µg/mL; MIC ([1]; read-out: MIC values against the Gram-negative multi-resistant clinical isolates of K. pneumoniae and A. baumanii): 4 to 8 µg/mL; MIC (E. coli 50739822): 4 µg/mL; selectivity index (EC50/MIC) (E. coli 50739822): (19); MIC (E. coli 50676002): 4 µg/mL; selectivity index (EC50/MIC) (E. coli 50676002): (19); MIC (P. aeruginosa K34-73): 8 µg/mL; selectivity index (EC50/MIC) (P. aeruginosa K34-73): (10); MIC (P. aeruginosa 50692520): 16 µg/mL; selectivity index (EC50/MIC) (P. aeruginosa 50692520): (5); MIC (P. aeruginosa K34-7): 16 µg/mL; selectivity index (EC50/MIC) (P. aeruginosa K34-7): (5); MIC (P. aeruginosa 50692172): 16 µg/mL; selectivity index (EC50/MIC) (P. aeruginosa 50692172): (5); MIC (P. aeruginosa K44-24): 16 µg/mL; selectivity index (EC50/MIC) (P. aeruginosa K44-24): (5); IC50 [2]: 2 µg/mL"
